PubChem BioAssay (NCI)
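Growth conditions: 96-well plates. Treatment: test compound, 48 hours, 5 concentrations. Analysis: linear interpolation between bracketing concentrations; unreached endpoints set to highest concentration. GI50 is the concentration that inhibits growth by half. TGI marks complete inhibition of growth.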

Key:
Assay in all cases: growth of human tumour cells (NCI), 48 h
A549 NSCLC = test system: A549 NSCLC
MALME-3M melanoma = test system: MALME-3M melanoma
UO-31 renal = test system: UO-31 renal
RPMI-8226 leukemia = test system: RPMI-8226 leukemia
OVCAR-8 ovarian = test system: OVCAR-8 ovarian
SN12C renal = test system: SN12C renal
UACC-257 melanoma = test system: UACC-257 melanoma
HOP-92 NSCLC = test system: HOP-92 NSCLC
RXF 393 renal = test system: RXF 393 renal

| SMILES | TGI (A549 NSCLC) [µM] | TGI (MALME-3M melanoma) [µM] | TGI (UO-31 renal) [µM] | TGI (RPMI-8226 leukemia) [µM] | TGI (OVCAR-8 ovarian) [µM] | TGI (SN12C renal) [µM] | TGI (UACC-257 melanoma) [µM] | TGI (HOP-92 NSCLC) [µM] | GI50 (A549 NSCLC) [µM] | GI50 (MALME-3M melanoma) [µM] | GI50 (HOP-92 NSCLC) [µM] | GI50 (UO-31 renal) [µM] | GI50 (RXF 393 renal) [µM] | GI50 (RPMI-8226 leukemia) [µM] | GI50 (OVCAR-8 ovarian) [µM] | GI50 (SN12C renal) [µM] | GI50 (UACC-257 melanoma) [µM] | TGI (RXF 393 renal) [µM] |
| --- | --- | --- | --- | --- | --- | --- | --- | --- | --- | --- | --- | --- | --- | --- | --- | --- | --- | --- |
| CCOC(=O)CC(NC(=O)c1ccc(N=NN(C)C)cc1)C(=O)OCC (stereo not drawn) | > 100 | > 100 | > 100 | > 100 | > 100 | > 100 | > 100 |  |  |  |  |  |  |  |  |  |  |  |
| CCCCCCCCCCCCCCCCCC(=O)NCC(COP(=O)(O)O)OCC (stereo not drawn) | > 100 | > 100 | 83.2 | > 100 | > 100 | 46.4 | > 100 | 42.4 |  |  |  |  |  |  |  |  |  |  |
| COc1ccc(C(=O)c2cc3c(N)c(C(=O)Nc4cccc(OC)c4)sc3nc2C)cc1 | > 100 | > 100 | > 100 |  | > 100 | > 100 | > 100 | > 100 | 0.753 | 0.593 | 2.39 | 1.14 | 0.323 | 0.39 | 1.75 | 0.867 | > 100 |  |
| COC(=O)C(=O)C(C(=O)C(=O)Nc1cc(Cl)c(Cl)cc1Cl)c1nc2ccc([N+](=O)[O-])cc2[nH]c1=O (stereo not drawn) | > 100 | > 100 | > 100 | > 100 | > 100 | > 100 | > 100 |  |  |  |  |  |  |  |  |  |  | > 100 |
| CC(=O)[C-](C(C)=O)c1ccccc1.CC(=O)[C-](C(C)=O)c1ccccc1.CC(=O)[C-](C(C)=O)c1ccccc1.[Cl-].[Zr+4] | > 100 | > 100 | > 100 | > 100 | > 100 | > 100 | > 100 | > 100 | > 100 | > 100 | 44.5 | > 100 | 28.1 | > 100 | 57.5 | > 100 | > 100 | 98.3 |
| Nc1c(C(=O)Nc2cccc3ccccc23)sc2nc3c(cc12)C(=O)CCC3 | > 46.1 | 54.7 | > 95.6 | > 38.2 | 32.1 | > 100 | > 65.8 | > 100 | 0.172 | 0.841 | 2.92 | 0.636 |  | 0.366 | 0.506 | 0.539 | 0.183 |  |
| Cc1ccc2nc(NC(=O)C(=O)CC(=O)c3cccc4ccccc34)sc2c1 | > 100 | 70.2 | > 100 | > 100 | 56.7 | > 100 | 82.2 | 69.9 |  |  |  |  |  |  |  |  |  |  |
| CCCCNC1=C(C(=O)OCC)/C(=N/NC(=O)c2ccccc2O)CO1 | > 100 | > 100 | 28.1 | > 100 | > 100 | > 100 | 14.2 |  |  |  |  |  |  |  |  |  |  | > 100 |
| O=CCCCC(Sc1ccccc1)Sc1ccccc1 | > 100 |  | 66.8 | 48.6 | 35.8 | 56.7 | 48.5 |  |  |  |  |  |  |  |  |  |  |  |
| COC(=O)C(C(=O)C(N)=O)c1csc(-n2nc(-c3ccccc3)cc2-c2ccccc2)n1 (stereo not drawn) | > 31.6 | > 31.6 | 28.9 | > 31.6 | > 31.6 |  | > 31.6 | > 100 |  |  |  |  |  |  |  |  |  | > 31.6 |
| COc1ccc2c(c1)c1c3n2CCNN=C3CCC1 | > 100 | > 100 | > 100 | > 100 | > 100 | > 100 | > 100 | > 100 |  |  |  |  |  |  |  |  |  |  |
| O=C(/C=C/C1C(=O)NC(=O)NC1=O)CC(=O)C(=O)Nc1cc(Cl)c(Cl)cc1Cl | > 100 | > 100 | > 100 | > 100 | > 100 | > 100 | > 100 |  |  |  |  |  |  |  |  |  |  | > 100 |
| CC(=O)Nc1ccc(-c2nnc(SCC(=O)Nc3ccc(Cl)cc3)o2)cc1 | 32 | 29.4 | 33.6 | > 100 | 74.1 | 27.5 | 40.9 |  |  |  |  |  |  |  |  |  |  | 22.6 |
| CC1=CC(=O)NP(=O)(C23CC4CC(CC(C4)C2)C3)N1 (stereo not drawn) |  | > 100 | > 100 | > 100 | > 100 | > 100 | > 100 | > 100 |  |  |  |  |  |  |  |  |  |  |
| [CH3][Sn]1([CH3])[O]CC(COc2cc(Cl)c(Cl)cc2Cl)[O]1 (stereo not drawn) | > 100 | > 100 | > 100 | > 100 | > 100 | > 100 | > 100 |  | 83.6 | > 100 |  | 71 | 29.1 | > 100 | > 100 | 89.1 | 99 | > 100 |
| CC(=O)OC(=O)O/C=C\CCl | > 100 | > 100 | > 100 | > 100 | > 100 | > 100 | > 100 |  |  |  |  |  |  |  |  |  |  | > 100 |
| Cn1nc(-c2ccccc2)c(C(=O)/C=C/c2ccc(Cl)cc2)c(N2CCCC2)c1=O | 49.4 |  | 21.5 | 7.84 | 29.7 | 54 |  | 6.94 |  |  |  |  |  |  |  |  |  | 8.52 |
| C/C(CC(=O)Nc1cccc([N+](=O)[O-])c1)=N\NC(=O)CC#N | > 100 | > 100 | > 100 | > 100 | > 100 |  | > 100 | > 100 |  |  |  |  |  |  |  |  |  | > 100 |
